Results: US6653081B2, “Methods for monitoring antiretroviral therapy and guiding therapeutic decision in the treatment of HIV/AIDS” (ViroLogic, Inc., priority 2000, dated 2003)
Entries after “also recorded” stand apart in the source; their conditions may differ.

What was measured:
RTV-V245T = experiment: Phenotypic susceptibility assay, RTV-V245T; format: cell-based, HIV-1; details: site-directed V245T alone
Text: (§1) The resistance test vectors containing a functional luciferase gene cassette were constructed and host cells were transfected with the resistance test vector DNA. The resistant test vectors contained patient-derived reverse transcriptase and protease sequences that were either susceptible or resistant to the antiretroviral agents, such as nucleoside reverse transcriptase inhibitors, (NRTIs) non-nucleoside reverse transcriptase inhibitors […] protease inhibitors. The resistance test vector viral particles produced by transfecting the resistance test vector DNA into host cells, either in the presence or absence of PRIs, were used to infect target host cells grown either in the absence of NRTIs or NNRTIs, or in the presence of increasing concentrations of the drug. The amount of luciferase activity produced in infected target host cells in the presence of varying concentrations of drug was compared to the amount of luciferase produced in infected target host cells in the absence of drug. “Drug resistance” was measured as the amount of drug required to inhibit by 50% the luciferase activity detected in the absence of drug (inhibitory concentration 50%, IC50). The IC50 values were determined by plotting percent drug inhibition vs. log10 drug concentration. Stimulation of viral replication was measured as the percent increase in luciferase activity detected when infection occurs in the presence of drug as compared to in the absence of drug.
(§2) Host cells were seeded in 10-cm-diameter dishes and were transfected several days after plating with resistance test vector plasmid DNA and the envelope expression vector. Transfections were performed using a calcium-phosphate precipitation procedure. The cell culture media containing the DNA precipitate was replaced with fresh medium, from one to 24 hours, after transfection. Cell culture media containing resistance test vector viral particles was harvested one to four days after transfection and was passed through a […] filter before being used to infect target host cells, or being stored at −80° C. HIV capsid protein (p24) levels in the harvested cell culture media were determined by an EIA method as described by the manufacturer (SAIC; Frederick, Md.). Before infection, target cells (293 and 293/T) were plated in cell culture media. Control infections were performed using cell culture media from mock transfections (no DNA) or transfections containing the resistance test vector plasmid DNA without the envelope expression plasmid. One to three or more days after infection, the media was removed and cell lysis buffer (Promega) was added to each well. Cell lysates were assayed for luciferase activity (FIG. 3). The inhibitory effect of the drug was determined using the following equation:
(§3) % luciferase inhibition=1−(RLUluc[drug]÷RLUluc)×100
(§4) where RLUluc [drug] is the Relative Light Unit of luciferase activity in infected cells in the presence of drug, and RLUluc is the Relative Light Unit of luciferase activity in infected cells in the absence of drug. IC50values were obtained from the sigmoidal curves that were generated from the data by plotting the percent inhibition of luciferase activity vs. the log10 drug concentration. The percent luciferase stimulation is the negative of the % inhibition calculated using the formula above.
A resistance test vector containing a single mutation, V245T, (RTV-V245T) was constructed and tested in the phenotypic assay described earlier. The results were compared to those determined using a genetically defined resistance test vector that was wild type at position 245. We determined the pattern of phenotypic susceptibility to the NNRTIs, delavirdine, nevirapine and efavirenz, in […].

RTV-1033-3/184V = experiment: Phenotypic susceptibility assay, RTV-1033-3/184V; format: cell-based, HIV; details: RTV-1033-3 plus M184V
Text: as §1, §2, §3, §4
(§5) A resistance test vector containing all of the mutations present in RTV-1033-3 in addition to M184V (RTV-1033-3/184V) was constructed and tested using the phenotypic assay described earlier. The results were compared to those determined using the parent RTV-1033-3. We determined the pattern of phenotypic susceptibility to the NNRTIs, delavirdine, nevirapine and efavirenz, in the mutated vector, RTV-1033-3/184V.

RTV-012123 = experiment: Phenotypic susceptibility assay, RTV-012123; format: cell-based, HIV; details: patient 012123; for decrease in susceptibility: 245 with multiple other mutations
Text: as §1, §2, §3, §4
A resistance test vector was constructed as described in Example 1 from a virus sample obtained from patient 012123. The prior and current treatment regimens are unknown. Isolation of viral RNA and RT/PCR was used to generate a patient derived segment (PDS) that comprised viral sequences coding for all of PR and aa 1-313 of RT. The PDS were inserted into an indicator gene viral vector to generate a resistance test vector designated RTV-012123. RTV-012123 was then tested in a phenotypic assay to determine accurately and quantitatively the level of susceptibility to a panel of anti-retroviral drugs. […]

[1] = tested on: RTV-1033-3/283L/284R/286T/293V/297E; experiment: Phenotypic susceptibility assay, RTV-1033-3/283L/284R/286T/293V/297E; format: cell-based, HIV; details: RTV-1033-3 with L283I, R284K, T286A, V293I and E297K reverted
Text: as §1, §2, §3, §4
as §5, with “except for L283I, R284K, T286A, V293I and E297K (RTV-1033-3/283L/284R/286T/293V/297E)” for “in addition to M184V (RTV-1033-3/184V)”, “reverted” for “mutated”, “RTV-1033-3/283L/284R/286T/293V/297E.” for “RTV-1033-3/184V.”

RTV-1033-3/227F = experiment: Phenotypic susceptibility assay, RTV-1033-3/227F; format: cell-based, HIV; details: RTV-1033-3 with F227L reverted
Text: as §1, §2, §3, §4
as §5, with “except for F227L (RTV-1033-3/227F)” for “in addition to M184V (RTV-1033-3/184V)”, “reverted” for “mutated”, “RTV-1033-3/227F.” for “RTV-1033-3/184V.”

RTV-014451 = experiment: Phenotypic susceptibility assay, RTV-014451; format: cell-based, HIV; details: patient 014451, week 32; for decrease in susceptibility: K101E, V106M, G190A on 241 backbone
Text: as §1, §2, §3, §4
Resistance test vectors were constructed as described in Example 1 from virus samples obtained from an individual patient at two separate time points separated by a 32-week period. The prior and current treatment regimens are unknown. Isolation of viral RNA and RT/PCR was used to generate patient derived segments (PDS) that comprised viral sequences coding for all of PR and aa […] of RT from […]. The PDS were inserted into an indicator gene viral vector to generate resistance test vectors designated RTV-014459 and RTV-014451. […]

RTV-012090 = experiment: Phenotypic susceptibility assay, RTV-012090; format: cell-based, HIV; details: patient CCTG-1025, week 48; for decrease in susceptibility: K101E, K103N, G190S, M230L
Text: as §1, §2, §3, §4
Resistance test vectors were constructed as described in Example 1 from virus samples obtained from an individual patient at two separate time points over a 48-week period. […]

| Compound | drug-dependent stimulation of viral replication (RTV-V245T) | reductions in susceptibility compared to wild type control RTV (RTV-V245T) | drug-dependent stimulation of viral replication (RTV-1033-3/184V) | reduction in susceptibility compared to wild type control RTV (RTV-1033-3/184V) | drug-dependent stimulation of viral replication (RTV-012123) | decrease in susceptibility (RTV-012123) | drug-dependent stimulation of viral replication [1] | reductions in susceptibility compared to wild type control RTV [1] | drug-dependent stimulation of viral replication (RTV-1033-3/227F) | reductions in susceptibility compared to wild type control RTV (RTV-1033-3/227F) | drug-dependent stimulation of viral replication (RTV-014451) | decrease in susceptibility (RTV-014451) | drug-dependent stimulation of viral replication (RTV-012090) | decrease in susceptibility (RTV-012090) |
| --- | --- | --- | --- | --- | --- | --- | --- | --- | --- | --- | --- | --- | --- | --- |
| CC(C)Nc1cccnc1N1CCN(C(=O)c2cc3cc(NS(C)(=O)=O)ccc3[nH]2)CC1 [delavirdine] | no drug-dependent stimulation | no reductions; also recorded: no significant reduction | ~100% | 5 fold | ~80% | > 250 fold | no drug-dependent stimulation | 16 fold | ~100% | 72 fold | ~90% | 41 fold | ~30% | 144 fold |
| O=C1Nc2ccc(Cl)cc2[C@@](C#CC2CC2)(C(F)(F)F)O1 [efavirenz] | no drug-dependent stimulation | no reductions; also recorded: no significant reduction | ~80% | 28 fold | ~70% | > 450 fold | no drug-dependent stimulation | 5 fold | ~100% | 18 fold | ~70% | > 450 fold | ~40% | > 450 fold |
| Cc1ccnc2c1NC(=O)c1cccnc1N2C1CC1 [nevirapine] | no drug-dependent stimulation | no reductions; also recorded: no significant reduction | ~100% | > 600 fold | ~20% | > 600 fold | no drug-dependent stimulation | 144 fold | ~120% | > 600 fold | ~100% | > 600 fold | ~80% | > 600 fold |
